Results as given in ChEMBL document CHEMBL4261560, “Structure-optimized dihydropyranoindole derivative GIBH-LRA002 potentially reactivated viral latency in primary CD4+ T lymphocytes of chronic HIV-1 patients” (Medchemcomm, 2017).
Activity calls are given as the source filed them. The calls are words filed in the database; no cut-off is given here.

Tests used:
[1] = Cytotoxicity against human J-Lat cells at 100 uM; assay type: cell-based
[2] = tested on: Human immunodeficiency virus 1; assay: Reactivation of latent HIV1 LTR-GFP infected in human Jurkat-Lat A10.6 cells assessed as increase in GFP-positive cells after 24 hrs by flow cytometry relative to control; assay type: functional
[3] = tested on: Simian immunodeficiency virus; assay: Reactivation of Simian immunodeficiency virus mac239 latent provirus in primary CD4+ T lymphocytes isolated from infected rhesus monkey PBMC assessed as increase in usRNA level after 24 hrs by RT-PCR analysis; assay type: functional, organism-based
[4] = tested on: Human immunodeficiency virus; assay: Reactivation of HIV latent provirus in primary CD4+ T lymphocytes isolated from infected human PBMC assessed as increase in msRNA level after 24 hrs by RT-PCR analysis; assay type: functional, organism-based
[5] = tested on: Simian immunodeficiency virus; assay: Reactivation of Simian immunodeficiency virus mac239 latent provirus in primary CD4+ T lymphocytes isolated from infected rhesus monkey PBMC assessed as increase in msRNA level after 24 hrs by RT-PCR analysis; assay type: functional, organism-based
[6] = tested on: Human immunodeficiency virus 1; assay: Reactivation of latent HIV1 LTR-GFP infected in human Jurkat-Lat A10.6 cells assessed as GFP-positive cells after 24 hrs by flow cytometry (reference value: 5.06%); assay type: functional
[7] = tested on: Human immunodeficiency virus; assay: Reactivation of HIV latent provirus in primary CD4+ T lymphocytes isolated from infected human PBMC assessed as increase in usRNA level after 24 hrs by RT-PCR analysis; assay type: functional, organism-based
[8] = Cytotoxicity against human J-Lat cells; assay type: cell-based
[9] = tested on: Human immunodeficiency virus 1; assay: Reactivation of latent HIV1 LTR-GFP infected in human Jurkat-Lat A10.6 cells assessed as GFP-positive cells at 10 uM after 24 hrs by flow cytometry (reference value: 5.06%); assay type: functional
T cell [10] = assay: Induction of monkey PBMC CD3+ T cells activation assessed as increase in CD25 expression up to 500 uM after 24 hrs by flow cytometry; assay type: cell-based, Macaca mulatta; conditions: rhesus monkey
[11] = tested on: Human immunodeficiency virus; assay: Reactivation of HIV latent provirus in primary CD4+ T lymphocytes isolated from infected human PBMC assessed as increase in usRNA level at 10 to 100 uM after 24 hrs by RT-PCR analysis; assay type: functional, organism-based
PBMC = assay: Cytotoxicity against PBMC (unknown origin) assessed as reduction in cell viability up to 500 uM by CCK8 assay; assay type: cell-based
T cell [12] = assay: Induction of monkey PBMC CD4+ T cells activation assessed as increase in CD25 expression up to 500 uM after 24 hrs by flow cytometry; assay type: cell-based, Macaca mulatta; conditions: rhesus monkey
[13] = tested on: Human immunodeficiency virus 1; assay: Reactivation of latent HIV1 LTR-GFP infected in human Jurkat-Lat A10.6 cells assessed as GFP-positive cells at 100 uM after 24 hrs by flow cytometry (reference value: 5.06%); assay type: functional
T cell [14] = assay: Induction of monkey PBMC CD4+ T cells activation assessed as increase in CCR5 expression up to 500 uM after 24 hrs by flow cytometry; assay type: cell-based, Macaca mulatta; conditions: rhesus monkey
T cell [15] = assay: Induction of monkey PBMC CD3+ T cells activation assessed as increase in CCR5 expression up to 500 uM after 24 hrs by flow cytometry; assay type: cell-based, Macaca mulatta; conditions: rhesus monkey
T cell [16] = assay: Induction of monkey PBMC CD3+ T cells activation assessed as increase in CD69 expression up to 500 uM after 24 hrs by flow cytometry; assay type: cell-based, Macaca mulatta; conditions: rhesus monkey
T cell [17] = assay: Induction of monkey PBMC CD4+ T cells activation assessed as increase in CD69 expression up to 500 uM after 24 hrs by flow cytometry; assay type: cell-based, Macaca mulatta; conditions: rhesus monkey
[18] = tested on: Human immunodeficiency virus; assay: Reactivation of HIV latent provirus in primary CD4+ T lymphocytes isolated from infected human PBMC assessed as increase in msRNA level at 10 to 100 uM after 24 hrs by RT-PCR analysis; assay type: functional, organism-based

CCOC(=O)C1(C(F)(F)F)C(C#N)=C(N)Oc2[nH]c3ccccc3c21 (configuration not stated)
Activity [1]: Toxic | fold change (FC) [2]: 2

CCCC(CCC)C(=O)O [VALPROIC ACID]
Activity [3]: inactive | Activity [4]: inactive | Activity [5]: inactive | Activity [6]: 25.7% | Activity [7]: inactive

CCOC(=O)[C@@]1(C(F)(F)F)C(C#N)=C(N)Oc2c1c1ccccc1n2C(=O)OC(C)(C)C
Activity [1]: Toxic | fold change (FC) [2]: 1.5

CCOC(=O)C1(C(F)(F)F)C(C#N)=C(N)Oc2c1c1ccccc1n2C(=O)OC(C)(C)C (racemic)
fold change (FC) [2]: 2.6 | fold change (FC) [8]: 1.8

CC(C)(C)OC(=O)n1c2c(c3ccccc31)C(C(F)(F)F)C(C#N)=C(N)O2 (configuration not stated)
fold change (FC) [2]: 0.25 | fold change (FC) [8]: 3

CCOC(=O)C1(C(F)(F)F)C(C#N)=C(N)Oc2c1c1ccccc1n2C (configuration not stated)
Activity [3]: Dose-dependent effect | Activity [9]: 9.16% | Activity (T cell [10]): Non-Toxic | Activity [11]: Active | Activity (PBMC): Non-Toxic | Activity [5]: Dose-dependent effect | Activity (T cell [12]): Non-Toxic | Activity [13]: 23% | Activity (T cell [14]): Non-Toxic | Activity (T cell [15]): Non-Toxic | fold change (FC) [2]: 4.4 | Activity (T cell [16]): Non-Toxic | Activity (T cell [17]): Non-Toxic | fold change (FC) [8]: 1.3 | Activity [18]: Active

CCOC(=O)C1(C(F)(F)F)C(C#N)=C(N)Oc2c1c1ccccc1n2Cc1ccccc1 (configuration not stated)
Activity [1]: Toxic | fold change (FC) [2]: 1.9

COC(=O)C1(C(F)(F)F)C(C#N)=C(N)Oc2c1c1ccccc1n2C(=O)OC(C)(C)C (configuration not stated)
fold change (FC) [2]: 2.1 | fold change (FC) [8]: 2.6
